# Source: PubChem BioAssay AID192 (DTP/NCI, 2004)
# Values joined by “and” are separate entries in the source; they are usually repeats but may differ in a detail not shown here. Identical values can stand only once. Inconclusive results and toxic doses are left out.
# Tested on: BDF1 mice, B16 melanoma ip, median survival T/C
# Assay: NCI In Vivo Anticancer Drug Screen. Data for tumor model B16 Melanoma (intraperitoneal) in B6D2F1 (BDF1) mice
# Conditions: endpoint: median survival time, higher = longer survival
# Summary of the method: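 Values are ratios of treated (T) to vehicle-control (C) measurements of survival or tumor size in tumor-bearing mice.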
# [1] = dose: 50.0 mg/kg/injection, schedule: Q01DX009 (ip), vehicle: saline with Tween-80
# [2] = dose: 100.0 mg/kg/injection, schedule: Q01DX009 (ip), vehicle: saline with Tween-80
# [3] = dose: 400.0 mg/kg/injection, schedule: Q01DX009 (ip), vehicle: saline with Tween-80
# [4] = dose: 12.5 mg/kg/injection, schedule: Q01DX009 (ip), vehicle: saline
# [5] = dose: 25.0 mg/kg/injection, schedule: Q01DX009 (ip), vehicle: saline
# [6] = dose: 50.0 mg/kg/injection, schedule: Q01DX009 (ip), vehicle: saline
# [7] = dose: 200.0 mg/kg/injection, schedule: Q01DX009 (ip), vehicle: saline
# [8] = dose: 400.0 mg/kg/injection, schedule: Q01DX009 (ip), vehicle: saline
# [9] = dose: 50.0 mg/kg/injection, schedule: Q04DX003 (ip), vehicle: saline
# [10] = dose: 12.5 mg/kg/injection, schedule: Q01DX009 (ip), vehicle: saline with Tween-80
# [11] = dose: 25.0 mg/kg/injection, schedule: Q01DX009 (ip), vehicle: saline with Tween-80
# [12] = dose: 200.0 mg/kg/injection, schedule: Q01DX009 (ip), vehicle: saline with Tween-80
# [13] = dose: 12.5 mg/kg/injection, schedule: Q01DX009 (ip), vehicle: Klucel (hydroxypropylcellulose) (HPC)
# [14] = dose: 25.0 mg/kg/injection, schedule: Q01DX009 (ip), vehicle: Klucel (hydroxypropylcellulose) (HPC)
# [15] = dose: 50.0 mg/kg/injection, schedule: Q01DX009 (ip), vehicle: Klucel (hydroxypropylcellulose) (HPC)
# [16] = dose: 25.0 mg/kg/injection, schedule: Q04DX003 (ip), vehicle: Klucel (hydroxypropylcellulose) (HPC)
# [17] = dose: 50.0 mg/kg/injection, schedule: Q04DX003 (ip), vehicle: Klucel (hydroxypropylcellulose) (HPC)
# [18] = dose: 200.0 mg/kg/injection, schedule: Q01DX009 (ip), vehicle: Klucel (hydroxypropylcellulose) (HPC)
# [19] = dose: 400.0 mg/kg/injection, schedule: Q01DX009 (ip), vehicle: Klucel (hydroxypropylcellulose) (HPC)
# [20] = dose: 100.0 mg/kg/injection, schedule: Q01DX009 (ip), vehicle: Klucel (hydroxypropylcellulose) (HPC)
smiles,measurement,setting,value
CCN(C(=O)Nc1ccccc1Cl)c1ccccc1,T/C,"dose: 100.0 mg/kg/injection, schedule: Q04DX003 (ip), vehicle: saline with Tween-80",94 % of control
same,T/C,"dose: 200.0 mg/kg/injection, schedule: Q04DX003 (ip), vehicle: saline with Tween-80",100 % of control
same,T/C,"dose: 400.0 mg/kg/injection, schedule: Q04DX003 (ip), vehicle: saline with Tween-80",91 % of control
C[CH2][Pb]([CH2]C)([CH2]C)[n]1cnc2ccccc21,T/C,"dose: 0.75 mg/kg/injection, schedule: Q01DX009 (ip), vehicle: Klucel (hydroxypropylcellulose) (HPC)",95 % of control
same,T/C,"dose: 1.5 mg/kg/injection, schedule: Q01DX009 (ip), vehicle: Klucel (hydroxypropylcellulose) (HPC)",96 % of control
CCOc1ncc([N+](=O)[O-])c(OCC)n1,T/C,[1],104 % of control
same,T/C,[2],100 % of control
same,T/C,[3],95 % of control
C1CCN(CN2CCCCC2)CC1,T/C,[4],97 % of control
same,T/C,[5],93 % of control
CN(C)CC(Cl)CCl (stereo unspecified),T/C,[6],98 % of control
same,T/C,"dose: 100.0 mg/kg/injection, schedule: Q01DX009 (ip), vehicle: saline",102 % of control
same,T/C,[7],105 % of control
same,T/C,[8],108 % of control
O=C(Nc1cccc(C(F)(F)F)c1)c1ccc(Cl)c(Cl)c1,T/C,"dose: 50.0 mg/kg/injection, schedule: Q01DX009 (ip), vehicle: gum acacia",105 % of control
same,T/C,"dose: 100.0 mg/kg/injection, schedule: Q01DX009 (ip), vehicle: gum acacia",119 % of control
same,T/C,"dose: 200.0 mg/kg/injection, schedule: Q01DX009 (ip), vehicle: gum acacia",113 % of control
same,T/C,"dose: 400.0 mg/kg/injection, schedule: Q01DX009 (ip), vehicle: gum acacia",100 % of control
C=CCC(N)Cc1ccccc1 (stereo unspecified),T/C,"dose: 3.12 mg/kg/injection, schedule: Q01DX009 (ip), vehicle: saline",105 % of control
same,T/C,"dose: 3.12 mg/kg/injection, schedule: Q04DX003 (ip), vehicle: saline",112 % of control
same,T/C,"dose: 6.25 mg/kg/injection, schedule: Q01DX009 (ip), vehicle: saline",105 % of control
same,T/C,"dose: 6.25 mg/kg/injection, schedule: Q04DX003 (ip), vehicle: saline",105 % of control
same,T/C,[4],111 % of control
same,T/C,"dose: 12.5 mg/kg/injection, schedule: Q04DX003 (ip), vehicle: saline",97 % of control
same,T/C,[5],100 % of control
same,T/C,"dose: 25.0 mg/kg/injection, schedule: Q04DX003 (ip), vehicle: saline",100 % of control
same,T/C,[6],110 % of control
same,T/C,[9],100 % of control
O=C1C=C(C2CCCCC2)C(=O)c2ccccc21,T/C,[10],106 % of control
same,T/C,[11],101 % of control
same,T/C,[1],92 % of control
same,T/C,[2],92 % of control
Cc1ccccc1NC(=O)c1cc2ccccc2cc1O,T/C,[2],110 % of control
same,T/C,[12],110 % of control
same,T/C,[3],107 % of control
CC1(O)Nc2nc3c(ncn3C3OC(CO)C(O)C3O)c(=O)n2C1O (stereo unspecified),T/C,"dose: 12.5 mg/kg/injection, schedule: Q01DX009 (ip), vehicle: water",96 % of control
same,T/C,"dose: 25.0 mg/kg/injection, schedule: Q01DX009 (ip), vehicle: water",103 % of control
same,T/C,"dose: 50.0 mg/kg/injection, schedule: Q01DX009 (ip), vehicle: water",101 % of control
same,T/C,"dose: 100.0 mg/kg/injection, schedule: Q01DX009 (ip), vehicle: water",100 % of control
same,T/C,"dose: 200.0 mg/kg/injection, schedule: Q01DX009 (ip), vehicle: water",97 % of control
same,T/C,"dose: 400.0 mg/kg/injection, schedule: Q01DX009 (ip), vehicle: water",95 % of control
C=CCOCC(O)CN(CC)c1ccccc1 (stereo unspecified),T/C,"dose: 75.0 mg/kg/injection, schedule: Q04DX003 (ip), vehicle: Klucel (hydroxypropylcellulose) (HPC)",89 % of control
same,T/C,"dose: 150.0 mg/kg/injection, schedule: Q04DX003 (ip), vehicle: Klucel (hydroxypropylcellulose) (HPC)",89 % of control
same,T/C,"dose: 300.0 mg/kg/injection, schedule: Q04DX003 (ip), vehicle: Klucel (hydroxypropylcellulose) (HPC)",98 % of control
O=C(O)C1CCCCC1C(=O)Nc1cccc(C(F)(F)F)c1 (stereo unspecified),T/C,[13],114 % of control
same,T/C,[14],119 % of control
same,T/C,[15],113 % of control
COc1ccc([I+]c2ccc(OC)cc2)cc1,T/C,"dose: 0.75 mg/kg/injection, schedule: Q01DX009 (ip), vehicle: saline with Tween-80",95 % of control
same,T/C,"dose: 1.5 mg/kg/injection, schedule: Q01DX009 (ip), vehicle: saline with Tween-80",95 % of control
same,T/C,"dose: 3.0 mg/kg/injection, schedule: Q01DX009 (ip), vehicle: saline with Tween-80",100 % of control
O=[N+]([O-])c1ccc([S][Pb]([c]2ccccc2)([c]2ccccc2)[c]2ccccc2)cc1,T/C,"dose: 6.25 mg/kg/injection, schedule: Q04DX003 (ip), vehicle: Klucel (hydroxypropylcellulose) (HPC)",94 % of control
same,T/C,"dose: 12.5 mg/kg/injection, schedule: Q04DX003 (ip), vehicle: Klucel (hydroxypropylcellulose) (HPC)",97 % of control
same,T/C,[16],93 % of control
same,T/C,[17],88 % of control
CN(C)C1CCN(Cc2ccccc2)CC1,T/C,[9],100 % of control
same,T/C,"dose: 100.0 mg/kg/injection, schedule: Q04DX003 (ip), vehicle: saline",90 % of control
same,T/C,"dose: 200.0 mg/kg/injection, schedule: Q04DX003 (ip), vehicle: saline",93 % of control
COc1ccccc1NC(=O)c1ccccc1,T/C,[2],97 % of control
same,T/C,[12],107 % of control
same,T/C,[3],97 % of control
Nc1nnc[se]1,T/C,"dose: 3.13 mg/kg/injection, schedule: Q01DX009 (ip), vehicle: saline with Tween-80",106 % of control
same,T/C,"dose: 6.25 mg/kg/injection, schedule: Q01DX009 (ip), vehicle: saline with Tween-80",97 % of control
same,T/C,[10],102 % of control
same,T/C,[11],115 % of control
CC(=O)C1(O)Cc2c(O)c3c(c(O)c2C(OC2CC(N)C(O)C(C)O2)C1)C(=O)c1ccccc1C3=O (stereo unspecified),T/C,"dose: 0.16 mg/kg/injection, schedule: Q01DX001 (ip), vehicle: water",117 % of control
same,T/C,"dose: 0.31 mg/kg/injection, schedule: Q01DX001 (ip), vehicle: water",121 % of control
same,T/C,"dose: 0.63 mg/kg/injection, schedule: Q01DX001 (ip), vehicle: water",123 % of control
same,T/C,"dose: 1200.0 micrograms/kg/injection, schedule: Q04DX003 (ip), vehicle: water",94 % of control
COc1ccccc1NC(=O)Nc1ccc(C(=O)OCC(C)C)cc1,T/C,[1],100 % of control
same,T/C,[2],94 % of control
same,T/C,[12],95 % of control
Cc1cccc(C)c1NS(=O)(=O)c1ccccc1,T/C,[18],87 % of control
same,T/C,[19],92 % of control
Cc1cc(C)c(NC(=O)N(CCCl)N=O)cc1C,T/C,"dose: 23.0 mg/kg/injection, schedule: Q01DX009 (ip), vehicle: saline",197 % of control
same,T/C,"dose: 45.0 mg/kg/injection, schedule: Q01DX009 (ip), vehicle: saline",229 % of control
COc1ccc(NC(=O)Nc2ccc(OC)cc2)cc1,T/C,[7],120 % of control
same,T/C,[8],116 % of control
COc1cc2nc3cc([N+](=O)[O-])ccc3c(Cl)c2cc1OC,T/C,[15],103 % of control
same,T/C,[20],96 % of control
CN(C1=NS(=O)(=O)N=C(N(C)c2ccccc2)O1)c1ccccc1,T/C,[14],101 % of control
same,T/C,[15],108 % of control
same,T/C,[20],96 % of control
same,T/C,[18],93 % of control
same,T/C,[19],87 % of control
Cc1c(Cl)cccc1NC(=O)Oc1cc(Cl)c(Cl)cc1Cl,T/C,"dose: 6.25 mg/kg/injection, schedule: Q01DX009 (ip), vehicle: Klucel (hydroxypropylcellulose) (HPC)",96 % of control
same,T/C,[13],98 % of control
same,T/C,[14],89 % of control and 98 % of control
CCCC(C(CC)CN(C)C)N(C)C (stereo unspecified),T/C,[10],90 % of control
same,T/C,[11],96 % of control
same,T/C,[1],94 % of control
O=C(N/N=C/c1ccc(N(CCCl)CCCl)cc1)c1ccc(C(=O)N/N=C/c2ccc(N(CCCl)CCCl)cc2)cc1,T/C,[16],97 % of control
same,T/C,[17],90 % of control and 100 % of control
same,T/C,"dose: 100.0 mg/kg/injection, schedule: Q04DX003 (ip), vehicle: Klucel (hydroxypropylcellulose) (HPC)",97 % of control
same,T/C,"dose: 200.0 mg/kg/injection, schedule: Q04DX003 (ip), vehicle: Klucel (hydroxypropylcellulose) (HPC)",90 % of control and 95 % of control
C1CCN(CCC2CCNCC2)CC1,T/C,[5],109 % of control
same,T/C,[6],90 % of control
